Data on 24 compounds can be found in PubChem BioAssay AID248 (DTP/NCI, 2004).

This assay has as its system L1210 leukemia ip in BDF1 mice, survival T/C. Kind of assay: NCI In Vivo Anticancer Drug Screen. Data for tumor model L1210 Leukemia (intraperitoneal) in B6D2F1 (BDF1) mice. The conditions noted are these: endpoint: mean survival time, higher = longer survival. An outline of the steps: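 Transplanted-tumor mice were given test agent; controls received vehicle only. Survival readings from the two groups were divided (treated over control).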

Where [1] appears, read: dose: 100.0 mg/kg/injection, schedule: Q04DX002 (ip), vehicle: Klucel (hydroxypropylcellulose) (HPC).
Where [2] appears, read: dose: 200.0 mg/kg/injection, schedule: Q04DX002 (ip), vehicle: Klucel (hydroxypropylcellulose) (HPC).
Where [3] appears, read: dose: 400.0 mg/kg/injection, schedule: Q04DX002 (ip), vehicle: Klucel (hydroxypropylcellulose) (HPC).
The mark [4] stands for this setting: dose: 100.0 mg/kg/injection, schedule: Q04DX003 (ip), vehicle: Klucel (hydroxypropylcellulose) (HPC).
The mark [5] stands for this setting: dose: 200.0 mg/kg/injection, schedule: Q04DX003 (ip), vehicle: Klucel (hydroxypropylcellulose) (HPC).
[6] abbreviates: dose: 400.0 mg/kg/injection, schedule: Q04DX003 (ip), vehicle: Klucel (hydroxypropylcellulose) (HPC).
Where [7] appears, read: dose: 100.0 mg/kg/injection, schedule: Q04DX003 (ip), vehicle: saline.
Setting [8] is: dose: 200.0 mg/kg/injection, schedule: Q04DX003 (ip), vehicle: saline.
[9] abbreviates: dose: 100.0 mg/kg/injection, schedule: Q01DX001 (ip), vehicle: saline.
Setting [10] is: dose: 400.0 mg/kg/injection, schedule: Q04DX003 (ip), vehicle: saline.
The mark [11] stands for this setting: dose: 100.0 mg/kg/injection, schedule: Q01DX009 (ip), vehicle: saline with Tween-80.
Where [12] appears, read: dose: 100.0 mg/kg/injection, schedule: Q04DX003 (ip), vehicle: saline with Tween-80.
[13] abbreviates: dose: 200.0 mg/kg/injection, schedule: Q01DX009 (ip), vehicle: saline with Tween-80.
Setting [14] is: dose: 200.0 mg/kg/injection, schedule: Q04DX003 (ip), vehicle: saline with Tween-80.
[15] abbreviates: dose: 400.0 mg/kg/injection, schedule: Q04DX003 (ip), vehicle: saline with Tween-80.
Setting [16] is: dose: 100.0 mg/kg/injection, schedule: Q01DX009 (ip), vehicle: saline.
The mark [17] stands for this setting: dose: 200.0 mg/kg/injection, schedule: Q01DX009 (ip), vehicle: saline.
Where [18] appears, read: dose: 200.0 mg/kg/injection, schedule: Q01DX001 (ip), vehicle: saline.
The mark [19] stands for this setting: dose: 400.0 mg/kg/injection, schedule: Q01DX001 (ip), vehicle: saline.
Setting [20] is: dose: 100.0 mg/kg/injection, schedule: Q01DX009 (ip), vehicle: Klucel (hydroxypropylcellulose) (HPC).
Setting [21] is: dose: 200.0 mg/kg/injection, schedule: Q01DX009 (ip), vehicle: Klucel (hydroxypropylcellulose) (HPC).
Setting [22] is: dose: 400.0 mg/kg/injection, schedule: Q01DX009 (ip), vehicle: Klucel (hydroxypropylcellulose) (HPC).

Values joined by “and” are separate entries in the source; they are usually repeats but may differ in a detail not shown here. Identical values can stand only once. Inconclusive results and toxic doses are left out.

Consider `CC(C)=CCC/C(C)=C\COc1ccc(C(C)(C)C)cc1`, for which the T/C reads like this: under setting [1], 96 % of control; under setting [2], 100 % of control; under setting [3], 89 % of control.
As to `Cc1ccc(NC(=O)Oc2ccc(Cl)cc2C)c([N+](=O)[O-])c1`, the T/C is 102 % of control under setting [4], 101 % of control under setting [5] and 91 % of control under setting [6].
As for `CCOC(=O)C1(C)CCCCC1=O` (stereo not given), the T/C is, setting by setting: (dose: 100.0 mg/kg/injection, schedule: Q01DX009 (ip), vehicle: saline sonified) 110 % of control; (dose: 200.0 mg/kg/injection, schedule: Q01DX009 (ip), vehicle: saline sonified) 96 % of control; (dose: 400.0 mg/kg/injection, schedule: Q01DX009 (ip), vehicle: saline sonified) 105 % of control.
Take `CCCCn1cc(COCC)c(=O)[nH]c1=O`: the T/C runs as follows: (dose: 50.0 mg/kg/injection, schedule: Q04DX002 (ip), vehicle: Klucel (hydroxypropylcellulose) (HPC)) 98 % of control; under setting [1], 102 % of control; under setting [2], 98 % of control.
Turning to `CN(C)CCC(C)(N)c1cccc2ccccc12` (stereo not given), the T/C under setting [7] is 113 % of control and the T/C under setting [8] is 107 % of control.
For `CNC1CC2CCC(C2)C1(O)c1ccccc1` (stereo not given), the T/C is 91 % of control (dose: 25.0 mg/kg/injection, schedule: Q04DX003 (ip), vehicle: saline); 113 % of control (dose: 50.0 mg/kg/injection, schedule: Q04DX003 (ip), vehicle: saline); 100 % of control under setting [9]; 102 % of control under setting [7].
With `Cc1cccc(C)c1NC(=O)NCCCl`, the T/C (dose: 50.0 mg/kg/injection, schedule: Q01DX001 (ip), vehicle: Klucel (hydroxypropylcellulose) (HPC)) was 97 % of control; the T/C (dose: 100.0 mg/kg/injection, schedule: Q01DX001 (ip), vehicle: Klucel (hydroxypropylcellulose) (HPC)) is 108 % of control; the T/C under setting [7] was 105 % of control; the T/C (dose: 200.0 mg/kg/injection, schedule: Q01DX001 (ip), vehicle: Klucel (hydroxypropylcellulose) (HPC)) was 101 % of control; the T/C under setting [8] was 97 % of control; the T/C under setting [10] was 100 % of control.
For `COC(=O)/C(C)=C\C=C(/C)C(=O)OC`, the T/C by setting is: under setting [7], 100 % of control; under setting [8], 116 % of control; under setting [10], 97 % of control.
With `C(=N\n1cnnc1)/c1ccc(/C=N/n2cnnc2)cc1`, the T/C was 98 % of control under setting [11]; 105 % of control under setting [12]; 88 % of control under setting [13]; 105 % of control under setting [14]; 89 % of control (dose: 400.0 mg/kg/injection, schedule: Q01DX009 (ip), vehicle: saline with Tween-80); 98 % of control under setting [15].
On to `CCCC1CCC(=C2C(=O)CCC2=O)O1` (stereo not given), for which the T/C is 95 % of control (dose: 3.13 mg/kg/injection, schedule: Q01DX009 (ip), vehicle: saline); 98 % of control (dose: 6.25 mg/kg/injection, schedule: Q01DX009 (ip), vehicle: saline); 106 % of control (dose: 12.5 mg/kg/injection, schedule: Q01DX009 (ip), vehicle: saline); 104 % of control (dose: 25.0 mg/kg/injection, schedule: Q01DX009 (ip), vehicle: saline).
Consider `Oc1c(Cl)cc(N=Cc2ccc(N(CCCCl)CCCCl)cc2Cl)cc1Cl`, for which the T/C was 101 % of control (dose: 50.0 mg/kg/injection, schedule: Q04DX003 (ip), vehicle: Klucel (hydroxypropylcellulose) (HPC)); 104 % of control under setting [4]; 101 % of control under setting [5]; 98 % of control under setting [6].
As for `O=C1CC(=O)NC(=S)N1`, the T/C was 101 % of control under setting [12], 93 % of control under setting [14] and 93 % of control under setting [15].
With `O=C1OC(=O)C2C3C=CC(C4C=CC43)C12` (stereo not given), the T/C by setting is: under setting [16], 93 % of control; (dose: 100.0 mg/kg/injection, schedule: Q04DX002 (ip), vehicle: saline with Tween-80) 103 % of control; under setting [7], 86 % of control; under setting [17], 102 % of control; (dose: 200.0 mg/kg/injection, schedule: Q04DX002 (ip), vehicle: saline with Tween-80) 100 % of control; under setting [8], 93 % of control. The T/C under setting [10] was 100 % of control.
`CC1(C)NC(C(=O)O)C(C)(C)S1` (stereo not given): the T/C is, setting by setting: under setting [9], 100 % of control; under setting [18], 89 % of control; under setting [19], 95 % of control.
`O=S1(=O)CC(S(=O)(=O)O)C(S(=O)(=O)O)C1` (stereo not given): the T/C by setting is: (dose: 50.0 mg/kg/injection, schedule: Q01DX009 (ip), vehicle: saline) 110 % of control; under setting [16], 103 % of control; under setting [17], 99 % of control; (dose: 400.0 mg/kg/injection, schedule: Q01DX009 (ip), vehicle: saline) 93 % of control.
`O=C(O)C(Oc1ccc(Cl)cc1Cl)C(=O)O`: the T/C reads like this: (dose: 100.0 mg/kg/injection, schedule: Q04DX002 (ip), vehicle: other) 93 % of control; (dose: 200.0 mg/kg/injection, schedule: Q04DX002 (ip), vehicle: other) 97 % of control; (dose: 400.0 mg/kg/injection, schedule: Q04DX002 (ip), vehicle: other) 95 % of control.
For the compound `Nc1cccc(S(=O)(=O)c2cccc(N)c2)c1`, the T/C runs as follows: under setting [20], 100 % of control; under setting [4], 97 % of control; under setting [21], 94 % of control; under setting [5], 94 % of control; under setting [22], 92 % of control; under setting [6], 94 % of control.
For the compound `COC(=O)CCN1CCN(c2ccccc2)CC1`, the T/C reads like this: under setting [9], 98 % of control; under setting [18], 98 % of control; under setting [19], 97 % of control.
Take `C=C(C)C1CCC2(C(=O)O)CCC3(C)C(CCC4C5(C)CCC(O)C(C)(C)C5CCC43C)C12` (stereo not given): the T/C is, setting by setting: under setting [4], 104 % of control; under setting [5], 97 % of control; under setting [6], 96 % of control.
As for `O=S1(=O)C2CCCCC2(N2CCOCC2)C1c1ccccc1` (stereo not given), the T/C is 118 % of control (dose: 66.0 mg/kg/injection, schedule: Q04DX003 (ip), vehicle: other); 97 % of control (dose: 100.0 mg/kg/injection, schedule: Q01DX009 (ip), vehicle: other); 101 % of control and 202 % of control (dose: 100.0 mg/kg/injection, schedule: Q04DX003 (ip), vehicle: other); 93 % of control (dose: 150.0 mg/kg/injection, schedule: Q04DX003 (ip), vehicle: other); 97 % of control (dose: 200.0 mg/kg/injection, schedule: Q01DX009 (ip), vehicle: other); 97 % of control (dose: 200.0 mg/kg/injection, schedule: Q04DX003 (ip), vehicle: other). Moreover, the T/C by setting is: (dose: 400.0 mg/kg/injection, schedule: Q01DX009 (ip), vehicle: other) 100 % of control; (dose: 400.0 mg/kg/injection, schedule: Q04DX003 (ip), vehicle: other) 94 % of control.
For `Cc1nn(C)c(Cl)c1[N+](=O)[O-]`, the T/C by setting is: under setting [20], 102 % of control; under setting [1], 102 % of control; under setting [21], 97 % of control; under setting [2], 91 % of control; under setting [22], 100 % of control; under setting [3], 94 % of control.
`O=C(/C=C\c1ccccc1)OCc1ccccc1CN1C=CCC1`: the T/C under setting [1] is 86 % of control, the T/C under setting [2] is 104 % of control and the T/C under setting [3] is 86 % of control.
Take `C=CCCCCCCCCC(=O)NC(C)C(C)(C)C` (stereo not given): the T/C by setting is: under setting [12], 87 % of control; under setting [14], 98 % of control.
`O=C(CNC(=O)Nc1ccc(Cl)c(Cl)c1)N/N=C/c1c(O)ccc2ccccc12`: the T/C is 93 % of control (dose: 50.0 mg/kg/injection, schedule: Q01DX009 (ip), vehicle: saline with Tween-80); 93 % of control under setting [11]; 91 % of control under setting [13].
